Measured values published in US11358952B2, “Substituted 4-aminoisoindoline-1,3-dione compounds, compositions thereof, and methods of treatment therewith” (Celgene Corporation, priority 2018, dated 2022).
pIC50: −log10 of the molar value.

These molecules were tested on SU-DHL-4 cell line (assay: SU-DHL-4 cell proliferation assay (Cell Titer-Glo viability)). Conditions: Homo sapiens; cell viability IC50 activity level, DLBCL cell line SU-DHL-4, 120 hours post-treatment; read-out: SU-DHL-4 Act.
Assay type: cell-based
Method in brief: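 Viability read by ATP luminescence (Cell Titer-Glo) at the start and after 120 h of growth at 37°C in 5% CO2. DLBCL cells were seeded at 500 per well with compound across 0.5 nM–10 μM in 20 points, 0.1% DMSO. A four-parameter sigmoidal fit gave IC50 as 50% of DMSO control.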

Compound	pIC50
O=C1CCC(N2C(=O)c3cccc(NCc4ccc(CN5CC(N6CCCC6)C5)cc4F)c3C2=O)C(=O)N1 (stereo not shown) [Cpd 218, 2-(2,6-dioxopiperidin-3-yl)-4-(2-fluoro-4-((3-(pyrrolidin-1-yl)azetidin-1-yl)methyl)benzylamino)isoindoline-1,3-dione]	> 6.70
Cc1cc(CNc2cccc3c2C(=O)N(C2CCC(=O)NC2=O)C3=O)ccc1CN1CC2(CCOC2)C1 (stereo not shown) [Cpd 243, 4-(4-(6-oxa-2-azaspiro[3.4]octan-2-ylmethyl)-3-methylbenzylamino)-2-(2,6-dioxopiperidin-3-yl)isoindoine-1,3-dione]	> 6.70
Cc1cc(CNc2cccc3c2C(=O)N(C2CCC(=O)NC2=O)C3=O)ccc1CN1CC(N2CC3CCC(C2)O3)C1 (stereo not shown) [Cpd 223, 4-(4-((3-(8-oxa-3-azabicyclo[3.2.1]octan-3-yl)azetidin-1-yl)methyl)-3-methylbenzylamino)-2-(2,6-dioxopiperidin-3-yl)isoindoline-1,3-dione]	> 6.70
Cc1cc(CNc2cccc3c2C(=O)N(C2CCC(=O)NC2=O)C3=O)ccc1CN1CC2(COC2)C1 (stereo not shown) [Cpd 228, 4-(4-(2-oxa-6-aaspiro[3.3]heptan-6-ylmethyl)-3-methylbenzylamino)-2-(2,6-dioxopiperidin-3-yl)isoindoline-1,3-dione]	6.30 to 6.70
CN(C)C(=O)c1ccc(N2CCN(Cc3ccc(CNc4cccc5c4C(=O)N(C4CCC(=O)NC4=O)C5=O)c(F)c3)CC2)cn1 (stereo not shown) [Cpd 140, 5-(4-(4-((2-(2,6-dioxopiperidin-3-yl)-1,3-dioxoisoindolin-4-ylamino)methyl)-3-fluorobenzyl)piperazin-1-yl)-N,N-dimethylpicolinamide]	6.30 to 6.70
O=C1CCC(N2C(=O)c3cccc(NCc4ccc(CN5CCC(C6CCOCC6)CC5)cc4F)c3C2=O)C(=O)N1 (stereo not shown) [Cpd 215, 2-(2,6-dioxopiperidin-3-yl)-4-(2-fluoro-4-((4-(tetrahydro-2H-pyran-4-yl)piperidin-1-yl)methyl)benzylamino)isoindoline-1,3-dione]	> 6.70
O=C1CCC(N2C(=O)c3cccc(NCc4ccc(CN5CC(N6CC7CCC(C6)O7)C5)cc4F)c3C2=O)C(=O)N1 (stereo not shown) [Cpd 225, 4-(4-((3-(8-oxa-3-azabicyclo[3.2.1]octan-3-yl)azetidin-1-yl)methyl)-2-fluorobenzylamino)-2-(2,6-dioxopiperidin-3-yl)isoindoline-1,3-dione]	> 6.70
Cc1cc(CN2CCC(C(C)(C)C)CC2)ccc1CNc1cccc2c1C(=O)N(C1CCC(=O)NC1=O)C2=O (stereo not shown) [Cpd 96, 4-(4-((4-tert-butylpiperidin-1-yl)methyl)-2-methylbenzylamino)-2-(2,6-dioxopiperidin-3-yl)isoindoline-1,3-dione]	> 6.70
CCOC1(C)CCN(Cc2ccc(CNc3cccc4c3C(=O)N(C3CCC(=O)NC3=O)C4=O)cc2F)CC1 (stereo not shown) [Cpd 159, 2-(2,6-dioxopiperidin-3-yl)-4-(4-((4-ethoxy-4-methylpiperidin-1-yl)methyl)-3-fluorobenzylamino)isoindoline-1,3-dione]	> 6.70
O=C1CCC(N2C(=O)c3cccc(NCc4ccc(CN5CCC6(CCCO6)CC5)cc4F)c3C2=O)C(=O)N1 (stereo not shown) [Cpd 144, 4-(4-(1-oxa-8-azaspiro[4.5]decan-8-ylmethyl)-2-fluorobenzylamino)-2-(2,6-dioxopiperidin-3-yl)isoindoline-1,3-dione]	> 6.70
Cc1cc(CNc2cccc3c2C(=O)N(C2CCC(=O)NC2=O)C3=O)ccc1CN1CCC(OC(C)(C)C)CC1 (stereo not shown) [Cpd 87, 4-(4-((4-tert-butoxypiperidin-1-yl)methyl)-3-methylbenzylamino)-2-(2,6-dioxopiperidin-3-yl)isoindoline-1,3-dione]	> 6.70
O=C1CC[C@@H](N2C(=O)c3cccc(NCc4ccc(CN5CC(N6CCOCC6)C5)cc4F)c3C2=O)C(=O)N1 [Cpd 209, (R)-2-(2,6-dioxopiperidin-3-yl)-4-(2-fluoro-4-((3-morpholinoazetidin-1-yl)methyl)benzylamino)isoindoline-1,3-dione]	> 6.70
O=C1CCC(N2C(=O)c3cccc(NCc4ccc(CN5CCC(F)(c6ccccn6)CC5)cc4)c3C2=O)C(=O)N1 (stereo not shown) [Cpd 19, 2-(2,6-dioxopiperidin-3-yl)-4-(4-((4-fluoro-4-(pyridin-2-yl)piperidin-1-yl)methyl)benzylamino)isoindoline-1,3-dione]	6.12 to 6.30
O=C1CCC(N2C(=O)c3cccc(NCc4ccc(CN5CCN(c6ccc(Cl)cc6)CC5)cc4)c3C2=O)C(=O)N1 (stereo not shown) [Cpd 3, 4-(4-((4-(4-chlorophenyl)piperazin-1-yl)metthyl)benzylamino)-2-(2,6-dioxopiperidin-3-yl)isoindoline-1,3-dione]	6.30 to 6.70
Cc1cc(CNc2cccc3c2C(=O)N(C2CCC(=O)NC2=O)C3=O)ccc1CN1CCC2(CCOC2)CC1 (stereo not shown) [Cpd 233, 4-(4-(2-oxa-8-azaspiro[4.5]decan-8-ylmethyl)-3-methylbenzylamino)-2-(2,6-dioxopiperidin-3-yl)isoindoline-1,3-dione]	> 6.70
N#Cc1ccc(C2CN(Cc3ccc(CNc4cccc5c4C(=O)N(C4CCC(=O)NC4=O)C5=O)c(F)c3)C2)cc1 (stereo not shown) [Cpd 104, 4-(1-(4-((2-(2,6-dioxopiperidin-3-yl)-1,3-dioxoisoindolin-4-ylamino)methyl)-3-fluorobenzyl)azetidin-3-yl)benzonitrile]	> 6.70

Compound	pIC50
Cc1cc(CNc2cccc3c2C(=O)N(C2CCC(=O)NC2=O)C3=O)ccc1CN1CCN(c2ccc(C(N)=O)cn2)CC1 (stereo not shown) [Cpd 205, 6-(4-(4-((2-(2,6-dioxopiperidin-3-yl)-1,3-dioxoisoindolin-4-ylamino)methyl)-2-methylbenzyl)piperazin-1-yl)nicotinamide]	> 6.70
Cc1cc(CNc2cccc3c2C(=O)N(C2CCC(=O)NC2=O)C3=O)ccc1CN1CCC2(CC1)CC2 (stereo not shown) [Cpd 44, 4-(4-(6-azaspiro[2.5]octan-6-ylmethyl)-3-methylbenzylamino)-2-(2,6-dioxopiperidin-3-yl)isoindoline-1,3-dione]	> 6.70
CC1(C)CN(c2ccc(C#N)nc2)CCN1Cc1ccc(CNc2cccc3c2C(=O)N(C2CCC(=O)NC2=O)C3=O)cc1 (stereo not shown) [Cpd 85, 5-(4-(4-((2-(2,6-dioxopiperidin-3-yl)-1,3-dioxoisoindolin-4-ylamino)methyl)benzyl)-3,3-dimethylpiperazin-1-yl)picolinonitrile]	> 6.70
Cc1cc(CNc2cccc3c2C(=O)N(C2CCC(=O)NC2=O)C3=O)ccc1CN1CCC2(CCOCC2)CC1 (stereo not shown) [Cpd 236, 4-(4-(3-oxa-9-azaspiro[5.5]undecan-9-ylmethyl)-3-methylbenzylamino)-2-(2,6-dioxopiperidin-3-yl)isoindoline-1,3-dione]	> 6.70
Cc1cc(CNc2cccc3c2C(=O)N(C2CCC(=O)NC2=O)C3=O)ccc1CN1CCC2(CC1)CC(F)(F)C2 (stereo not shown) [Cpd 47, 4-(4-((2,2-difluoro-7-azaspiro[3.5]nonan-7-yl)methyl)-3-methylbenzylamino)-2-(2,6-dioxopiperidin-3-yl)isoindoline-1,3-dione]	> 6.70
O=C1CCC(N2C(=O)c3cccc(NCc4ccc(CN5CC6(CCCCC6)C5)cc4)c3C2=O)C(=O)N1 (stereo not shown) [Cpd 72, 4-(4-(2-azaspiro[3.5]nonan-2-ylmethyl)benzylamino)-2-(2,6-dioxopiperidin-3-yl)isoindoline-1,3-dione]	6.30 to 6.70
O=C1CCC(N2C(=O)c3cccc(NCc4ccc(CN5CCC6(CCOC6)CC5)cc4F)c3C2=O)C(=O)N1 (stereo not shown) [Cpd 231, 4-(4-(2-oxa-8-azaspiro[4.5]decan-8-ylmethyl)-2-fluorobenzylamino)-2-(2,6-dioxopiperidin-3-yl)isoindoline-1,3-dione]	> 6.70
COC1CC2CCC(C1)N2Cc1ccc(CNc2cccc3c2C(=O)N(C2CCC(=O)NC2=O)C3=O)cc1 [Cpd 35, 2-(2,6-dioxopiperidin-3-yl)-4-(4-(((1R,3r,5S)-3-methoxy-8-azabicyclo[3.2.1]octan-8-yl)methyl)benzylamino)isoindoline-1,3-dione]	6.00 to 6.12
Cc1cc(CNc2cccc3c2C(=O)N(C2CCC(=O)NC2=O)C3=O)ccc1CN1CCC2(CCC2)CC1 (stereo not shown) [Cpd 46, 4-(4-(7-azaspiro[3.5]nonan-7-ylmethyl)-3-methylbenzylamino)-2-(2,6-dioxopiperidin-3-yl)isoindoline-1,3-dione]	> 6.70
N#Cc1cc(F)c(N2CCN(Cc3ccc(CNc4cccc5c4C(=O)N(C4CCC(=O)NC4=O)C5=O)cc3)CC2)c(Cl)c1 (stereo not shown) [Cpd 11, 3-chloro-4-(4-(4-((2-(2,6-dioxopiperidin-3-yl)-1,3-dioxoisoindolin-4-ylamino)methyl)benzyl)piperazin-1-yl)-5-fluorobenzonitrile]	6.12 to 6.30
O=C1CCC(N2C(=O)c3cccc(NCc4ccc(CN5CCC(c6ccccn6)CC5)cc4F)c3C2=O)C(=O)N1 (stereo not shown) [Cpd 166]	> 6.70
NC(=O)c1ccc(N2CCN(Cc3ccc(CNc4cccc5c4C(=O)N(C4CCC(=O)NC4=O)C5=O)cc3)CC2)nc1 (stereo not shown) [Cpd 54, 6-(4-(4-((2-(2,6-dioxopiperidin-3-yl)-1,3-dioxoisoindolin-4-ylamino)methyl)benzyl)piperazin-1-yl)nicotinamide]	6.30 to 6.70
Cc1cc(CNc2cccc3c2C(=O)N(C2CCC(=O)NC2=O)C3=O)ccc1CN1CCC(C(=O)N(C)C)CC1 (stereo not shown) [Cpd 79, 1-(4-((2-(2,6-dioxopiperidin-3-yl)-1,3-dioxoisoindolin-4-ylamino)methyl)-2-methylbenzyl)-N,N-dimethylpiperidine-4-carboxamide]	6.30 to 6.70
O=C1CCC(N2C(=O)c3cccc(NCc4ccc(CN5CCN(c6ncsn6)CC5)cc4)c3C2=O)C(=O)N1 (stereo not shown) [Cpd 196, 4-(4-((4-(1,2,4,-thiadiazol-3-yl)piperazin-1-yl)methyl)benzylamino)-2-(2,6-dioxopiperidin-3-yl)isoindoline-1,3-dione]	> 6.70
O=C1CCC(N2C(=O)c3cccc(NCc4ccc(CN5CCN(c6ccc(C(F)(F)F)nc6)CC5)cc4)c3C2=O)C(=O)N1 (stereo not shown) [Cpd 10, 2-(2,6-dioxopiperidin-3-yl)-4-(4-((4-(6-(trifluoromethyl)pyridin-3-yl)piperazin-1-yl)methyl)benzylamino)isoindoline-1,3-dione]	6.30 to 6.70
